# How the values were obtained:
# [1] = Particle size of EPO mRNA-encapsulating lipid particles; format: physicochemical; settings: aminolipid 50 / DOPE 10 / cholesterol 38.5 / DMG-PEG2000 1.5 mol %, lipid/nucleic acid 64 wt/wt
# Outline: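 Lipid particles made from ethanol lipid phase (20 mmol/L total lipid, with DSPC, DOPE or DOPC, cholesterol, DMG-PEG2000) and EPO mRNA in pH 4 citrate buffer (lipid:mRNA about 16:1 to 64:1 w/w), mixed 3:1 aqueous:oil, then dialyzed against 10% sucrose. Size measured after 10-fold PBS dilution by light-scattering analyzer.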
# PTEN mRNA = PTEN mRNA knockdown in vitro (quantification of PTEN mRNA by PCR); format: cell-based, human; settings: SH-SY5Y cells; PTEN ASO lipid particles of Table 3, ASO 500 nmol/L, exposure 24 hours; PTEN mRNA by ΔΔCt method
# From the text: An antisense oligonucleotide nucleic acid (PTEN ASO) for a PTEN protein was purchased from Hokkaido System Science Co., Ltd. PTEN ASO is an oligonucleotide consisting of 20 bases, in which nucleotides are connected by a phosphodiester bond, and the sequence of which is described below.
# In an in vitro test using SH-SY5Y cells (American Type Culture Collection), E-MEM (gibco), Ham's F12 (gibco), FBS (gibco), Penicillin-streptomycin (gibco), and NEAA (FUJIFILM Wako Pure Chemical Corporation) were mixed at a ratio of 41.5:41.5:15:1:1 and the mixture was used as a culture medium.
# The measurement of PTEN protein mRNA was performed according to the protocol of TaqMan (register trademark) Fast Advanced Cells-to-CT™ Kit (Thermo Fisher Scientific). To A431 cells or SH-SY5Y cells, a dispersion liquid of nucleic acid lipid particles prepared to have a final concentration of 500 nmol/L as an ASO concentration, Naked ASO or PBS was added. After exposure for 24 hours under the control of 37° C. and 5% CO2, the culture supernatant was removed, and the mixture was washed once with PBS at 4° C. After removing the PBS, a lysis solution was added at 50 μL/well, and the mixture was stood still for 5 minutes at room temperature to obtain a cell lysate. For the cell lysate, TaqMan (register trademark) Fast Advanced Cells-to-CT™ Kit (Thermo Fisher scientific), and Hs02621230_s1, FAM/MGB (Thermo Fisher Scientific) and Human GAPDH Endogenous Control (VIC (register trademark)/MGB, Thermo Fisher Scientific) as a PCR reaction reagent were used to perform reverse transcription and PCR reaction.
# The PTEN mRNA level of each sample was calculated by the ΔΔCt method. Specifically, the Ct value of GAPDH is subtracted from the Ct value of PTEN to calculate the ΔCt value of each sample. The average value of the ΔCt values of the PBS treatment group was subtracted from the calculated ΔCt value to calculate the ΔΔCt value. For each ΔΔCt value, a relative value with respect to the Naked ASO to be compared was taken as a PTEN mRNA relative value.
# [2] = Particle size of FLuc mRNA-encapsulating lipid particles; format: physicochemical
# Description: The compounds described in Table 2, the neutral lipid, cholesterol (product name: Cholesterol HP; NTPPON FINE CHEMICAL CO., LTD.), and 1,2-dimyristoyl-rac-glycero-3-(methylpolyoxyethylene 2000) (hereinafter, called DMG-PEG2000) were dissolved in ethanol at a molar ratio in Table 2 such that the total lipid concentration became 20 mmol/L, thereby obtaining an oil phase.
# As the neutral lipid, 1,2-distearoyl-sn-glycero-3-phosphocholine (product name: COATSOME® MC-8080; NOF corporation) was used in a case of Comparative Example 1, and L-α-dioleoylphosphatidylethanolamine (product name: COATSOME® MC-8181; NOF corporation) was used in a case other than Comparative Example 1.
# FLuc mRNA (product name: CleanCap FLuc mRNA (5 moU); TriLink) was diluted with 50 mmol/L citrate buffer having a pH 4 such that the weight ratio of total lipid concentration to mRNA concentration is about 19:1 to 64:1, obtaining a water phase. Then, the water phase and the oil phase were mixed together using NanoAssemblr (Precision NanoSystems) such that the volume ratio of water phase:oil phase was 3:1, and the mixed solution was 1.5-fold diluted with phosphate buffered saline (PBS), thereby obtaining a dispersion liquid of mRNA lipid particles. The dispersion liquid was dialyzed with a 10% aqueous sucrose solution using a dialysis cassette (Slide-A-Lyzer G2, MWCO: 10 kD, Thermo Fisher Scientific) to remove ethanol, thereby obtaining FLuc mRNA-encapsulating lipid particles.
# The particle size of the mRNA-encapsulating lipid particles was measured by 10-fold diluting the dispersion liquid of lipid particle with phosphate buffered saline (PBS) using Zeta-potential & Particle size Analyzer ELS-Z2 (Otsuka Electronics Co., Ltd.).
# [3] = aminolipid 45 / DOPE 10 / cholesterol 43.5 / DMG-PEG2000 1.5 mol %, lipid/nucleic acid 32 wt/wt
SMILES,Particle size [1] [nm],PTEN knockdown relative value with respect to Naked ASO (PTEN mRNA),"Particle size [2, 3] [nm]","Particle size ([2]; aminolipid 40 / DOPE 10 / cholesterol 48.5 / DMG-PEG2000 1.5 mol %, lipid/nucleic acid 64 wt/wt) [nm]","Particle size ([2]; aminolipid 50 / DOPE 10 / cholesterol 38.5 / DMG-PEG2000 1.5 mol %, lipid/nucleic acid 64 wt/wt) [nm]"
"CCCCCCC(CCCC)COC(=O)CCCC(CCCCCC)OC(=O)OCCN(CCOC(=O)OC(CCCCCC)CCCC(=O)OCC(CCCC)CCCCCC)CCN(CC)CC (stereo not drawn) [Example 8, Bis(2-butyloctyl) 11-(2-(diethylamino)ethyl)-5,17-dihexyl-7,15-dioxo-6,8,14,16-tetraoxa-11-azahenicosanedioate]",81.3,0.65,–,–,–
"CCCCCCCOC(=O)CCCC(CCCC(=O)OCCCCCCC)OC(=O)OCCN(CCOC(=O)OC(CCCC(=O)OCCCCCC)CCCC(=O)OCCCCCC)CCN(CC)CC [Example 37, 1-Heptyl 21-hexyl 11-(2-(diethylamino)ethyl)-5-(4-(heptyloxy)-4-oxobutyl)-17-(4-(hexyloxy)-4-oxobutyl)-7,15-d ioxo-6,8,14,16-tetraoxa-11-azahenicosanedioate]",136.1,0.83,–,–,–
"CCCCCC(CCCCC)COC(=O)CCCC(CCC)OC(=O)OCCN(CCOC(=O)OC(CCC)CCCC(=O)OCC(CCCCC)CCCCC)CCN(CC)CC (stereo not drawn) [Example 21, Bis(2-pentylheptyl) 11-(2-(diethylamino)ethyl)-7,15-dioxo-5,17-dipropyl-6,8,14,16-tetraoxa-11-azahenicosanedioate]",109.4,0.33,100.9,–,–
"CCCCCCCOC(=O)CCCC(CCCC(=O)OCCCCCCC)OC(=O)OCCN(CCOC(=O)OC(CCCC(=O)OCCCCCCC)CCCC(=O)OCCCCCCC)CCN(CC)CC [Example 29, diheptyl 11-(2-(diethylamino)ethyl)-5,17-bis(4-(heptyloxy)-4-oxobutyl)-7,15-dioxo-6,8,14,16-tetraoxa-11-azahenicosanedioate]",108.7,0.80,129,104.8,95.1
"CCCCCCC(CCCC(=O)OCC(CCCCC)CCCCC)OC(=O)OCCN(CCCN(CC)CC)CCOC(=O)OC(CCCCCC)CCCC(=O)OCC(CCCCC)CCCCC (stereo not drawn) [Example 13, Bis(2-pentylheptyl) 11-(3-(diethylamino)propyl)-5,17-dihexyl-7,15-dioxo-6,8,14,16-tetraoxa-11-azahenicosanedio ate]",79.5,0.34,83.4,–,–

# Reference: patent publication US20240124389A1, “COMPOUND OR SALT THEREOF, LIPID PARTICLES, AND PHARMACEUTICAL COMPOSITION” (FUJIFILM Corporation, priority 2021, published 2024)
